In US10844049B2, “GLP-1R agonists and uses thereof” (QILU REGOR THERAPEUTICS INC., priority 2018, dated 2020):

Assays:
GLP1R [1] = biological target: T1, GLP1R (Homo sapiens, UniProt P43220); experiment: GLP1R cAMP assay, CHO cells stably expressing human GLP-1R; format: cell-based
Experimental: GLP-1R-mediated agonist activity was determined with a cell-based functional assay utilizing an HTRF (Homogeneous Time-Resolved Fluorescence) cAMP detection kit (cAMP Dynamic 2 Assay Kit; CisBio cat #62AM4PEC) that measures cAMP levels in the cell. The method is a competitive immunoassay between native cAMP produced by the cells and exogenous cAMP labeled with the dye d2. The tracer binding is visualized by a mAb anti-cAMP labeled with Cryptate. The specific signal (i.e., energy transfer) is inversely proportional to the concentration of cAMP in either standard or experimental sample.
Varying concentrations of each compound to be tested (in DMSO) were diluted in DMSO to obtain 200× compound working solution first and then 50 nl compounds were added to a white 384-well assay plate (Greiner 784075) with ECHO. The final DMSO concentration was 0.5%. The compound concentration range may be adjusted at any time.
Cells were removed from cryopreservation, re-suspended in 5 mL of Dulbecco's Phosphate Buffered Saline (DPBS-Sigma Cat # D8537) and centrifuged at 900 g for 5 min at 22° C. The cell pellet was then re-suspended in 1 mL of assay buffer [DPBS with 500 μM IBMX (Sigma #15879) and 0.1% BSA (Sigma # A1933). IBMX and BSA were freshly added on the day of assay]. A 10 μL sample of the cell suspension was counted on an Invitrogen Countess II to determine cell viability and cell count per mL. The remaining cell suspension was then adjusted with assay buffer to deliver 1000 viable cells per well using a Matrix Combi Multidrop reagent dispenser. 10 μL cell suspensions were added to each well of the assay plate which already contains compound. The plate was sealed and incubated at 37° C. with 5% CO2 for 30 minutes.
Following the 30 minute incubation, 5 μL of labeled d2 cAMP and 5 μL of anti-cAMP antibody (both diluted 1:20 in cell lysis buffer; as described in the manufacturer's assay protocol) were added to each well of the assay plate. The plates w ere then incubated at room temperature and after 60 minutes, changes in the HTRF signal were read with an Envision multi-label plate reader using excitation of 330 nm and emissions of 615 and 665 nm. Raw data were converted to nM cAMP by interpolation from a cAMP standard curve (as described in the manufacturer's assay protocol) and the percent effect was determined relative to a saturating concentration of the full agonist GLP-17-37 (10 nM) included on each plate. EC50 determinations were made from agonist dose-response curves analyzed with a curve fitting program using a 4-parameter logistic dose response equation. […]

GLP1R [2] = biological target: T1, GLP1R; experiment: GLP1R cAMP HTRF assay, HEK293/GLP-1R/CRE/Luc (HEK293T cells); format: cell-based
How it was run: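 cAMP accumulation via HTRF after 30 min, 37 °C exposure of 1000 receptor-expressing cells/well to compound (0.5% DMSO final) in IBMX (500 μM)/0.1% BSA DPBS.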

[3] = CHO cells, mean ± spread, read-out: CHO cells EC50
[4] = mean ± spread, read-out: HEK293T cells EC50
[5] = CHO cells stably expressing GLP-1R, read-out: CHO cAMP stable EC50

T1 sequence (P43220 24-463): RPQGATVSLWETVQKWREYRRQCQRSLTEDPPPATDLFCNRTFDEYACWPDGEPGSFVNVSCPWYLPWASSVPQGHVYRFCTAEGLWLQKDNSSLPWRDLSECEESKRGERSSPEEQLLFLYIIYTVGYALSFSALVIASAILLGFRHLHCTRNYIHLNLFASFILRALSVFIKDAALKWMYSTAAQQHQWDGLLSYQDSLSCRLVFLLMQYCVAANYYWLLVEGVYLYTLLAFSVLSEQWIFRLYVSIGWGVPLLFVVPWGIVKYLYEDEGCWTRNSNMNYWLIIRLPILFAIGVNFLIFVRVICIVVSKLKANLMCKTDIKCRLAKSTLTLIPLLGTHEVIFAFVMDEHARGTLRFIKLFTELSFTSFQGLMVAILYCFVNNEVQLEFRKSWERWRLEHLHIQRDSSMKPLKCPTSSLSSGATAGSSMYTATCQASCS

| Compound | EC50 (GLP1R [1]; [3]) | EC50 (GLP1R [2]; [4]) | EC50 (GLP1R [1]; [5]) | EC50 (GLP1R [2]; read-out: EC50) |
| --- | --- | --- | --- | --- |
| O=C(O)c1ccc2nc(CN3CCC(c4cncc(OCc5ccc(Cl)cc5F)n4)CC3)n(C[C@@H]3CCO3)c2c1 [drawing 60, reference compound] | 289 ± 53 nM | 10.5 nM | – | – |
| O=C(O)c1ccc2nc(CN3CCC(c4ccnc(OCc5ccc(Cl)cc5F)n4)CC3)n(C[C@@H]3CCO3)c2c1 [drawing 58, reference compound] | 95.8 nM | 1.98 nM | – | – |
| N#Cc1ccc(COc2cncc(C3CCN(Cc4nc5ccc(C(=O)O)cc5n4C[C@@H]4CCO4)CC3)n2)c(F)c1 [drawing 62, reference compound] | 924 ± 230 nM | 15.9 nM | – | – |
| N#Cc1ccc(COc2cccc(N3CCC(Cc4nc5ccc(C(=O)O)nc5n4C[C@@H]4CCO4)CC3)n2)c(F)c1 [Compound 227, (S)-2-((l-(6-((4-cyano-2-fluorobenzyl)oxy)pyridin-2-yl)piperidin-4-yl)methyl)-3-(oxetan-2-ylmethyl)-3H-imidazo[4,5-b]pyridine-5-carboxylic acid] | – | – | ≤ 150 nM | ≤ 15 nM |
| N#Cc1ccc(COc2cccc(C3CCN(Cc4nc5ccc(C(=O)O)nc5n4C[C@@H]4CCO4)CC3)n2)c(F)c1 [reference compound] | 3.5 nM | 0.3 nM | – | – |
| N#Cc1ccc(COc2cccc(C3=CCN(Cc4nc5ccc(C(=O)O)nc5n4C[C@@H]4CCO4)CC3)n2)c(F)c1 [drawing 69] | 3.86 nM | 0.168 nM | – | – |
| N#Cc1ccc(COc2cccc(C3=CCN(Cc4nc5ccc(C(=O)O)cc5n4C[C@@H]4CCO4)CC3)n2)c(F)c1 [drawing 55] | 2.25 nM | 0.219 nM | – | – |
| O=C(O)c1ccc2nc(CN3CC=C(c4cncc(OCc5ccc(Cl)cc5F)n4)CC3)n(C[C@@H]3CCO3)c2c1 [drawing 61] | 136 ± 32.6 nM | 2.94 nM | – | – |
| N#Cc1ccc(COc2nc(C3CCN(Cc4nc5ccc(C(=O)O)cc5n4C[C@@H]4CCO4)CC3)ccc2F)c(F)c1 [reference compound] | 463 nM | 5.65 nM | – | – |
| O=C(O)c1ccc2nc(CN3CC=C(c4ccnc(OCc5ccc(Cl)cc5F)n4)CC3)n(C[C@@H]3CCO3)c2c1 [drawing 59] | 73.7 nM | 1.8 nM | – | – |
| O=C(O)c1ccc2nc(CN3CCC(c4cccc(OCc5ccc(Cl)cc5F)n4)CC3)n(C[C@@H]3CCO3)c2c1 [reference compound] | 7.65 nM | 0.412 nM | – | – |
| O=C(O)c1ccc2nc(CN3CCC(c4cccc(OCc5ccc(Cl)cc5F)c4)CC3)n(C[C@@H]3CCO3)c2c1 [drawing 66, reference compound] | 105 ± 32.7 nM | 8.58 nM | – | – |
| N#Cc1ccc(COc2nc(C3=CCN(Cc4nc5ccc(C(=O)O)cc5n4C[C@@H]4CCO4)CC3)ccc2F)c(F)c1 [drawing 57] | 6.05 nM | 0.517 nM | – | – |
| N#Cc1ccc(COc2cccc(N3CCC(Cc4nc5ccc(C(=O)O)c(F)c5n4C[C@@H]4CCO4)CC3)n2)c(F)c1 [Compound 228, (S)-2-((l-(6-((4-cyano-2-fluorobenzyl)oxy)pyridin-2-yl)piperidin-4-yl)methyl)-7-fluoro-1-(oxetan-2-ylmethyl)-1H-benzo[d]imidazole-6-carboxylic acid] | – | – | ≤ 150 nM | ≤ 15 nM |
| O=C(O)c1ccc2nc(CN3CC=C(c4cccc(OCc5ccc(Cl)cc5F)n4)CC3)n(C[C@@H]3CCO3)c2c1 [drawing 65] | 3.28 nM | 0.393 nM | – | – |
